Our source for the inhibition values is US9115142B2, “Heterocycle-substituted piperazino-dihydrothienopyrimidines” (Boehringer Ingelheim International GmbH, priority 2007, dated 2015).

SMILES strings stand for the structures. Counter-ions that a name gives are not always drawn.

This assay deals with PDE4B (Homo sapiens, UniProt Q07343). As to the kind of experiment: Scintillation Proximity Assay (SPA) of PDE4B enzymatic activity ([H3]-cAMP cleavage). The assay is classed as biochemical. The note with it: test substance 1 μM; one-hour incubation with [H3]-cAMP and PDE4B at 30° C. The procedure: The Scintillation Proximity Assay (SPA) (GE Healthcare, No. TRKQ7090) was carried out by using the different affinities of cyclic 3″-5″-adenosinemonophosphate (cAMP, low affinity) and linear 5″-adenosinemonophosphate (AMP, high affinity) for yttrium silicate scintillator beads. The cAMP specific phosphodiesterase (PDE) PDE4B cleaves the 3″-phosphoester bond of tritium-labelled [H3]-cAMP to form [H3]-5″-AMP. This [H3]-AMP accumulates on the scintillator beads because of its higher affinity for them and causes scintillation events (flashes of light) which are measured in a Wallac Microbeta Scintillation Counter.
Chain of PDE4B (Q07343 whole entry, species assumed): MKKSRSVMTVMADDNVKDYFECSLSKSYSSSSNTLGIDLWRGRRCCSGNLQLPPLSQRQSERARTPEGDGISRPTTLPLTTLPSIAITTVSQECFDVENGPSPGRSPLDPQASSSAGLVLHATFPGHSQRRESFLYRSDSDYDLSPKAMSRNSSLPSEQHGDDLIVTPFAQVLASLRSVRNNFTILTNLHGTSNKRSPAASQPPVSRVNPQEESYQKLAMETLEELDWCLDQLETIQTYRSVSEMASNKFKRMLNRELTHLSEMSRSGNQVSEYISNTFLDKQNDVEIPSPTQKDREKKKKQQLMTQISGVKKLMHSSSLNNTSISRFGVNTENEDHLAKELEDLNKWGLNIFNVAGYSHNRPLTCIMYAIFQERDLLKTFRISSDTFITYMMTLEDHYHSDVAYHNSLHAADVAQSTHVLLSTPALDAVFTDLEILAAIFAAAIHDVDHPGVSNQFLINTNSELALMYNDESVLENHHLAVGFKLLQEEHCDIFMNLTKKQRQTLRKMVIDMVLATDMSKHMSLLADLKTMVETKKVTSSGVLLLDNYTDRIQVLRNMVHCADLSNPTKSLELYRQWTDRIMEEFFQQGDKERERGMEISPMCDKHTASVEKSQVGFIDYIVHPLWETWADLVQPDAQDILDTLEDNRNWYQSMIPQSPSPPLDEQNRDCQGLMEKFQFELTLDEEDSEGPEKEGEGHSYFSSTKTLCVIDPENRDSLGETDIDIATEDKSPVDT
The experiment starts with a one-hour incubation of [H3]-cAMP with the PDE4B enzyme in assay buffer at 30° C., in each case once with the Example substance to be tested (in a concentration of 1 μM) and once without the Example substance to be tested.
After this incubation, the reaction is stopped by the addition of the beads. The beads have an opportunity to settle in the next 45 minutes, then the measurement is carried out in the Scintillation Counter. If the substance is capable of inhibiting the enzymatic activity of the PDE4B, less [H3]-AMP is produced during the incubation phase and fewer scintillation events can be measured.
As to `[O-][S+]1CCc2nc(N3CCN(c4nccs4)CC3)nc(Nc3cccc(F)c3)c21` (stereo not drawn) [Example 1, (3-fluorophenyl)-[5-oxo-2-(4-thiazol-2-yl-piperazin-1-yl)-6,7-dihydro-5H-5λ^4-thieno[3,2-d]pyrimidin-4-yl]-amine], testing at 1 µM gave an inhibition of 94%. To `CC(C)[C@H](CO)Nc1nc(N2CCN(c3nccs3)CC2)nc2c1[S+]([O-])CC2` (stereo partly drawn) [Example 2, (R)-3-methyl-2-[5-oxo-2-(4-thiazol-2-yl-piperazin-1-yl)-6,7-dihydro-5H-5λ^4-thieno[3,2-d]pyrimidin-4-ylamino]-butan-1-ol] belongs 90%; to `[O-][S+]1CCc2nc(N3CCN(c4nc5ccccc5o4)CC3)nc(Nc3cccc(F)c3)c21` (stereo not drawn) [Example 3, [2-(4-benzoxazol-2-yl-piperazin-1-yl)-5-oxo-6,7-dihydro-5H-5λ^4-thieno[3,2-d]pyrimidin-4-yl]-(3-fluorophenyl)-amine], 95%. To `[O-][S+]1CCc2nc(N3CCN(c4nc5ccccc5o4)CC3)nc(NC3CCOCC3)c21` (stereo not drawn) [Example 5, [2-(4-benzoxazol-2-yl-piperazin-1-yl)-5-oxo-6,7-dihydro-5H-5λ^4-thieno[3,2-d]pyrimidin-4-yl]-(tetrahydropyran-4-yl)-amine] belongs 96%; to `CC(C)[C@H](CO)Nc1nc(N2CCN(c3ccc(Cl)nn3)CC2)nc2c1[S+]([O-])CC2` (stereo partly drawn) [Example 6, (R)-2-{2-[4-(6-chlorpyridazin-3-yl)-piperazin-1-yl]-5-oxo-6,7-dihydro-5H-5λ^4-thieno[3,2-d]pyrimidin-4-ylamino}-3-methylbutan-1-ol], 93%. To `[O-][S+]1CCc2nc(N3CCN(c4ccc(Cl)nn4)CC3)nc(Nc3cccc(F)c3)c21` (stereo not drawn) [Example 7, {2-[4-(6-chlorpyridazin-3-yl)-piperazin-1-yl]-5-oxo-6,7-dihydro-5H-5λ^4-thieno[3,2-d]pyrimidin-4-yl}-(3-fluorophenyl)-amine] belongs 95%; to `CC(C)[C@H](CO)Nc1nc(N2CCN(c3nc4ccccc4o3)CC2)nc2c1[S+]([O-])CC2` (stereo partly drawn) [Example 10, (R)-2-[2-(4-benzoxazol-2-yl-piperazin-1-yl)-5-oxo-6,7-dihydro-5H-5λ^4-thieno[3,2-d]pyrimidin-4-ylamino]-3-methylbutan-1-ol], 94%. In turn, `[O-][S+]1CCc2nc(N3CCN(c4ccc(Cl)cn4)CC3)nc(NC3(CO)CC3)c21` (stereo not drawn) [Example 13, (1-{2-[4-(5-Chloropyridin-2-yl)-piperazin-1-yl]-5-oxo-6,7-dihydro-5H-5λ^4-thieno[3,2-d]pyrimidin-4-ylamino}-cyclopropyl)-methanol] came in with an inhibition at 1 µM of 95%. Then `[O-][S+]1CCc2nc(N3CCN(c4ccc(Cl)cn4)CC3)nc(NC3CCOCC3)c21` (stereo not drawn) [Example 14, {2-[4-(5-chloropyridin-2-yl)-piperazin-1-yl]-5-oxo-6,7-dihydro-5H-5λ^4-thieno[3,2-d]pyrimidin-4-yl}-(tetrahydropyran-4-yl)-amine], with 95%.

In the case of `CN(C)c1nnccc1N1CCN(c2nc3c(c(Nc4cccc(F)c4)n2)[S+]([O-])CC3)CC1` (stereo not drawn) [Example 15, {2-[4-(3-dimethylaminopyridazin-4-yl)-piperazin-1-yl]-5-oxo-6,7-dihydro-5H-5λ^4-thieno[3,2-d]pyrimidin-4-yl}-(3-fluorophenyl)-amine], 1 µM produced 97% inhibition. `[O-][S+]1CCc2nc(N3CCN(c4cc(Cl)nnc4O)CC3)nc(Nc3cccc(F)c3)c21` (stereo not drawn) [Example 16, 6-chloro-4-{4-[4-(3-fluorophenylamino)-5-oxo-6,7-dihydro-5H-5λ^4-thieno[3,2-d]pyrimidin-2-yl]-piperazin-1-yl}-pyridazin-3-ol] yielded an inhibition at 1 µM of 95%.

As for `CCOCCOc1ccc(N2CCN(c3nc4c(c(Nc5cccc(F)c5)n3)[S+]([O-])CC4)CC2)nn1` (stereo not drawn) [Example 17, (2-{4-[6-(2-ethoxyethoxy)-pyridazin-3-yl]-piperazin-1-yl}-5-oxo-6,7-dihydro-5H-5λ^4-thieno[3,2-d]pyrimidin-4-yl)-(3-fluorophenyl)-amine], at 1 µM the inhibition was 97%. To `[O-][S+]1CCc2nc(N3CCN(c4ccnnc4)CC3)nc(Nc3cccc(F)c3)c21` (stereo not drawn) [Example 18, (3-fluorophenyl)-[5-oxo-2-(4-pyridazin-4-yl-piperazin-1-yl) 6,7-dihydro-5H-5λ^4-thieno[3,2-d]pyrimidin-4-yl]-amine] belongs 96%; to `COc1cccc2c1nc(N1CCN(c3nc4c(c(N[C@@H](CO)C(C)C)n3)[S+]([O-])CC4)CC1)n2C` (stereo partly drawn) [Example 23, (R)-2-{2-[4-(4-methoxy-1-methyl-1H-benzimidazol-2-yl)-piperazin-1-yl]-5-oxo-6,7-dihydro-5H-5λ^4-thieno[3,2-d]pyrimidin-4-ylamino}-3-methylbutan-1-ol], 83%; to `CCN1CCc2ncc(N3CCN(c4nc5c(c(N[C@@H](CO)C(C)C)n4)[S+]([O-])CC5)CC3)nc2CC1` (stereo partly drawn) [Example 24, (R)-2-{2-[4-(7-ethyl-6,7,8,9-tetrahydro-5H-pyrazino[2,3-d]azepin-2-yl)-piperazin-1-yl]-5-oxo-6,7-dihydro-5H-5^4-thieno[3,2-d]pyrimidin-4-ylamino}-3-methylbutan-1-ol], 94%. In turn, `CC(C)[C@H](CO)Nc1nc(N2CCN(c3ccncn3)CC2)nc2c1[S+]([O-])CC2` (stereo partly drawn) [Example 28, (R)-3-methyl-2-[5-oxo-2-(4-pyrimidin-4-yl-piperazin-1-yl)-6,7-dihydro-5H-5λ^4-thieno[3,2-d]pyrimidin-4-ylamino]-butan-1-ol trifluoroacetate] returned an inhibition at 1 µM of 94%. Regarding `CC(C)[C@H](CO)Nc1nc(N2CCN(c3ccnc(O)c3)CC2)nc2c1[S+]([O-])CC2` (stereo partly drawn) [Example 29, 4-{4-[4((R)-1-hydroxymethyl-2-methylpropylamino)-5-oxo-6,7-dihydro-5H-5λ^4-thieno[3,2-d]pyrimidin-2-yl]-piperazin-1-yl}-pyridin-2-ol], the inhibition at 1 µM amounted to 94%.

For the compound `CC(C)[C@H](CO)Nc1nc(N2CCN(c3ccncc3)CC2)nc2c1[S+]([O-])CC2` (stereo partly drawn) [Example 32, (R)-3-methyl-2-[5-oxo-2-(4-pyridin-4-yl-piperazin-1-yl)-6,7-dihydro-5H-5λ^4-thieno[3,2-d]pyrimidin-4-ylamino]-butan-1-ol trifluoroacetate], testing at 1 µM gave an inhibition of 77%.

`CC(C)[C@H](CO)Nc1nc(N2CCN(c3ccnnc3N(C)C)CC2)nc2c1[S+]([O-])CC2` (stereo partly drawn) [Example 36, (R)-2-{2-[4-(3-dimethylaminopyridazin-4-yl)-piperazin-1-yl]-5-oxo-6,7-dihydro-5H-5λ^4-thieno[3,2-d]pyrimidin-4-ylamino}-3-methylbutan-1-ol trifluoroacetate] registered an inhibition at 1 µM of 94%. Then `CC(C)[C@H](CO)Nc1nc(N2CCN(c3cc(Cl)nnc3O)CC2)nc2c1[S+]([O-])CC2` (stereo partly drawn) [Example 37], with 90%. Compound `CCOCCOc1ccc(N2CCN(c3nc4c(c(N[C@@H](CO)C(C)C)n3)[S+]([O-])CC4)CC2)nn1` (stereo partly drawn) [Example 38, (R)-2-(2-{4-[6-(2-ethoxyethoxy)-pyridazin-3-yl]-piperazin-1-yl}-5-oxo-6,7-dihydro-5H-5λ^4-thieno[3,2-d]pyrimidin-4-ylamino)-3-methylbutan-1-ol trifluoroacetate] came in with an inhibition at 1 µM of 96%. Then `CC(C)[C@H](CO)Nc1nc(N2CCN(c3ccnnc3)CC2)nc2c1[S+]([O-])CC2` (stereo partly drawn) [Example 39, (R)-3-methyl-2-[5-oxo-2-(4-pyridazin-4-yl-piperazin-1-yl)-6,7-dihydro-5H-5λ^4-thieno[3,2-d]pyrimidin-4-ylamino]-butan-1-ol trifluoroacetate], with 92%. Then `[O-][S+]1CCc2nc(N3CCN(c4ccncn4)CC3)nc(NC3(CO)CC3)c21` (stereo not drawn) [Example 55, {1-[5-oxo-2-(4-pyrimidin-4-yl-piperazin-1-yl)-6,7-=dihydro-5H-5λ^4-thieno[3,2-d]pyrimidin-4-ylamino]-cyclopropyl}-methanol trifluoroacetate], with 95%; and `[O-][S+]1CCc2nc(N3CCN(c4ccncc4)CC3)nc(NC3(CO)CC3)c21` (stereo not drawn) [Example 58, {1-[5-oxo-2-(4-pyridin-4-yl-piperazin-1-yl)-6,7-dihydro-5H-5λ^4-thieno[3,2-d]pyrimidin-4-ylamino]-cyclopropyl}-methanol trifluoroacetate], with 91%. To `CN1C[C@@H](Nc2nc(N3CCN(c4ccncn4)CC3)nc3c2[S+]([O-])CC3)CCC1=O` (stereo partly drawn) [Example 71, (S)-1-methyl-5-[5-oxo-2-(4-pyrimidin-4-yl-piperazin-1-yl)-6,7-dihydro-5H-5λ^4-thieno[3,2-d]pyrimidin-4-ylamino]-piperidin-2-one] belongs 96%; to `Cn1c(N2CCN(c3nc4c(c(NC5CCOCC5)n3)[S+]([O-])CC4)CC2)nc2cc(F)ccc21` (stereo not drawn) [Example 87, {2-[4-(5-fluoro-1-methyl-1H-benzoimidazol-2-yl)-piperazin-1-yl]-5-oxo-6,7-dihydro-5H-5λ^4-thieno[3,2-d]pyrimidin-4-yl}-(tetrahydropyran-4-yl)-amine], 96%; to `[O-][S+]1CCc2nc(N3CCN(c4ccncc4)CC3)nc(NC3CCOCC3)c21` (stereo not drawn) [Example 96, [5-oxo-2-(4-pyridin-4-yl-piperazin-1-yl)-6,7-dihydro-5H-5λ^4-thieno[3,2-d]pyrimidin-4-yl]-(tetrahydropyran-4-yl)-amine trifluoroacetate], 93%.
